One experiment has as its system gastric acid secretion. The experiment in a line: Gastric antisecretory activity in the gastric fistula rat. Type of experiment: in vivo, rat (male Long Evans). Conditions: sc, read-out: ED50 sc.
Another experiment relates to peptic ulcer disease. Conditions: clinical evaluation, Gray et al., Lancet, 1, 8001 (1977); cited from earlier work.
For another experiment, the target named is T1, histamine H2-receptor (Cavia porcellus, UniProt P47747).
T1 construct: The spontaneously beating right atrium was dissected free from other tissues; from tissue; host or cells: isolated spontaneously beating right atrium of male Hartley strain guinea pigs
T1 sequence (P47747 whole entry): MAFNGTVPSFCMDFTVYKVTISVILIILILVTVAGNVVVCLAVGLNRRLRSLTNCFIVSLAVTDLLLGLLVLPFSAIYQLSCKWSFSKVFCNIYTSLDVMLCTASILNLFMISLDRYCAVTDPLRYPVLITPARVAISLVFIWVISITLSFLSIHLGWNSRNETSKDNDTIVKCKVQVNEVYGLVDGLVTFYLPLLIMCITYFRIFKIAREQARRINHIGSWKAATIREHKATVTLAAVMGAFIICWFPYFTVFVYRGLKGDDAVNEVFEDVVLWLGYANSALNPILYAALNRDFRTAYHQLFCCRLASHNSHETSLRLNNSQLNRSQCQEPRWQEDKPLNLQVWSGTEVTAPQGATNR
Conditions: Black et al., Nature, 236, 385 (1972); cited from earlier work.

Read-outs that look alike come from different tables or passages of the source.

The ED50 is the dose at which the effect has come halfway, by size or by number of responders. `Nc1nsnc1NCCCOc1cccc(CN2CCCCC2)c1` [Example 3, 3-Amino-4-[3-(3-piperidinomethylphenoxy)propylamino]-1,2,5-thiadiazole]: in the experiment on gastric acid secretion (gastric fistula rat), the ED50 turned out to be 0.094 µmol/kg.

With `CN/C(=N/CCSCc1nc[nH]c1C)NC#N` [cimetidine, reference compound], in the experiment with peptic ulcer disease, the “therapeutic effect in treatment of peptic ulcer disease” value was “effective therapeutic agent in the treatment of peptic ulcer disease”. Also, the ED50 in the experiment with gastric acid secretion (Rattus norvegicus) turned out to be 3.48 µmol/kg.

Take `CN(C)Cc1ccc(CSCCNc2nsnc2N)o1` [Example 10, 3-amino-4-{2-[(5-dimethylaminomethyl-2-furyl)-methylthio]ethylamino}-1,2,5-thiadiazole]: the median effective dose (ED50) in the experiment with gastric acid secretion (gastric fistula rat) came to 0.77 µmol/kg.

`Cc1cc(CSCCNc2nsnc2N)sc1CN(C)C` [Example 11, 3-Amino-4-{2-[(5-dimethylaminomethyl-4-methyl-2-thienyl)methylthio]ethylamino}-1,2,5-thiadiazole]: in the experiment with gastric acid secretion (gastric fistula rat), the ED50 is approximately 0.5 µmol/kg.

As to `Nc1nsnc1NCCCOc1cccc(CN2CCCC2)c1` [Example 4, 3-Amino-4-[3-(3-pyrrolidinomethylphenoxy)propylamino]-1,2,5-thiadiazole], the ED50 with gastric acid secretion (gastric fistula rat) was 0.18 µmol/kg.

In the case of `CNC(=S)NCCCCc1cnc[nH]1` [burimamide], at histamine H2-receptor, the “type of antagonism at histamine H2-receptors” value is reported as “competitive antagonist”.
